Bounds are passed on as bounds.

Series [1] has as its target T1, BT4244-CBM32 (Bacteroides thetaiotaomicron, UniProt Q89ZX7).
T1 construct: gene BT_4244
T1 sequence (Q89ZX7 145-285 limits assumed): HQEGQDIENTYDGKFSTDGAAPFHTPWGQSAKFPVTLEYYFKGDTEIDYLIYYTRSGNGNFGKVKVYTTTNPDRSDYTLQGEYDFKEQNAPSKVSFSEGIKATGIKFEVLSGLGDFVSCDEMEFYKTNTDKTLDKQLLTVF
The series is described as follows: ITC. Format: binding. The conditions noted are these: 20 mM Tris-HCl pH 7.5, 25 °C; single-site model.

Series [2] concerns the target T2, BT4245-SGBP (Bacteroides thetaiotaomicron, UniProt Q89ZX6).
T2 construct: gene BT_4245; full-length mature protein, signal peptide removed, His-tagged, from E. coli
T2 sequence (Q89ZX6 21-430): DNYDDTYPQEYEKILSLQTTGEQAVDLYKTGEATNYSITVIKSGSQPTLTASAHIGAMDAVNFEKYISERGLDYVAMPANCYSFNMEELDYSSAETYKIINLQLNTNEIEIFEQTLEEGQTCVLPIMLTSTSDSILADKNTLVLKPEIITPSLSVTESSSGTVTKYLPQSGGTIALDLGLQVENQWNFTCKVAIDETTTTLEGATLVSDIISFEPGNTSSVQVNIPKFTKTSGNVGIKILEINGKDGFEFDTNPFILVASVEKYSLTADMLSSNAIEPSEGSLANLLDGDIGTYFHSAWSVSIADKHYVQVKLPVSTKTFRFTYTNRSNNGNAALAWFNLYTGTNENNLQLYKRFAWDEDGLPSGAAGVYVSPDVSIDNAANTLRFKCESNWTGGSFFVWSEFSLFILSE
The series is described as follows: ITC. The note with it: 20 mM Tris-HCl pH 7.5, 25 °C; single-site model. The class given is binding.

Series [3] has as its target T3, BT4246-SusD-like (Bacteroides thetaiotaomicron, UniProt Q89ZX5).
T3 sequence (Q89ZX5 25-642): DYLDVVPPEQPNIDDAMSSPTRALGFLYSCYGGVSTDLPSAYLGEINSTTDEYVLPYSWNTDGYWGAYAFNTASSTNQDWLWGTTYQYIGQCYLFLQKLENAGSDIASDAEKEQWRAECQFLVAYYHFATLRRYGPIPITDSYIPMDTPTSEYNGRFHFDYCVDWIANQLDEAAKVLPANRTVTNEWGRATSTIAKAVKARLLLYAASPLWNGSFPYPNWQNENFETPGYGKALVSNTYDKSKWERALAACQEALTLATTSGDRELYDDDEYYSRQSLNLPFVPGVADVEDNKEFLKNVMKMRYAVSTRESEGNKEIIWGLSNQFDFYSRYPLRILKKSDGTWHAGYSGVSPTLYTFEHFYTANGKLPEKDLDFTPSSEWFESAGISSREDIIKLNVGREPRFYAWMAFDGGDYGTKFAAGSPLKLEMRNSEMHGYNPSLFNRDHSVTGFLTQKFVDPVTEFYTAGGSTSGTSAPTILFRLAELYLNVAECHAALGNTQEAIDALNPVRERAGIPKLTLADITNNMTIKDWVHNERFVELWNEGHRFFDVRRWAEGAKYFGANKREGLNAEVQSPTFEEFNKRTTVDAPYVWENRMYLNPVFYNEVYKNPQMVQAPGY
The series is described as follows: ITC. The class given is binding. On the set-up: gene BT_4246; mature form, signal peptide removed, His-tagged, from E. coli (ITC). The note with it: 20 mM Tris-HCl pH 7.5, 25 °C; single-site model.

Series [4] concerns the target T3, BT4246-SusD-like. The series is described as follows: X-ray crystal structure, […] Å. The class given is binding. On the set-up: gene BT_4246; residues 25-642, His-tag removed by TEV protease, from E. coli (crystal). The conditions noted are these: crystals soaked in 4% PGMIII O-glycan oligosaccharides; only the terminal Gal of an undefined oligosaccharide is modelled, not free galactose.

Substrate in series [5]: CC(=O)N[C@H]1[C@@H](Oc2ccc([N+](=O)[O-])cc2)O[C@H](CO)[C@H](O)[C@@H]1O
The experiment in a line: 4-nitrophenol release at A400. The conditions noted are these: 20 mM MOPS pH 7.0, 37 °C, 0.4 µM enzyme. The class given is biochemical, Bacteroides thetaiotaomicron. As for the experimental part: 4-nitrophenol release at A400 on BT4243-GH109 | between GalNAc and serine in Tn antigen as well as PNP-α-GalNAc | enzyme (final) was added to substrate (PNP-α-GalNAc or PNP-β-GalNAc, respectively)

Consider `CC(=O)N[C@H]1C(O)O[C@H](CO)[C@H](O)[C@@H]1O` (some centres unmarked) [GalNAc], for which the Ka in series [1] is 0.40 (±0.03) × 10^4; in series [2], 1.20 (±0.2) × 10^4.

As for `OC[C@H]1OC(O)[C@H](O)[C@@H](O)[C@H]1O` (some centres unmarked) [Gal], the Ka in series [1] is given as 0.16 (±0.01) × 10^4; in series [2], > 0.1 × 10^4.

Turning to `CC(=O)N[C@H]1C(O)O[C@H](CO)[C@H](O)[C@@H]1O[C@@H]1O[C@H](CO)[C@H](O)[C@H](O)[C@H]1O` (some centres unmarked) [core 1 disaccharide], the values for the Ka in series [1] and in series [3] were 0.20 (±0.01) × 10^4 and 0.45 (±0.03) × 10^4, respectively.

On to `CC(=O)N[C@H]1C(O)O[C@H](CO)[C@@H](O)[C@@H]1O[C@@H]1O[C@H](CO)[C@H](O)[C@H](O)[C@H]1O` (some centres unmarked) [lacto-N-biose], for which the Ka in series [3] is on record as 0.13 (±0.07) × 10^4.

Turning to `OC[C@H]1O[C@@H](O[C@H]2[C@H](O)[C@@H](O)C(O)O[C@@H]2CO)[C@H](O)[C@@H](O)[C@H]1O` (some centres unmarked) [lactose], the Ka in series [1] is reported as 0.23 (±0.00) × 10^4.

In the case of `OC[C@H]1OC(O)[C@H](O)[C@@H](O)[C@H]1O` (some centres unmarked) [terminal Gal from a mucin O-glycan oligosaccharide], the “X-ray crystal structure, 1.8 Å” value in series [4] was “In the resulting structure, unambiguous electron density was observed for a β-linked Gal”.

B1: BT4243-GH109 (Bacteroides thetaiotaomicron VPI-5482) (protein)
chain: QKTKAKFSPIKVETPARPANQQDVIQLVTPKLETVRVGFIGLGMRGPGAVERWTHIPGTQIVALCDLLPERVENAQKILEKAGLPKAASYAGDEKAWKKLCERDDIDVVYIATDWKHHADMGVYAMEHGKHVAIEVPAAMTLDEIWKLINTSEKTRKHCMQLENCVYDFFELTSLNMAQQGVFGEVLHVEGAYIHNLEDFWPYYWNNWRMDYNQKHRGDVYATHGMGPACQVLNIHRGDRMKTLVAMDTKAVNGPAYIKKSTGKEVKDFQNGDQTTTLIRTENGKTMLIQHNVMTPRPYSRMYQVVGADGYASKYPIEEYCLRPTQVDSNDVPNHEKLNAHGSVSEDVKKALMAKYKDPIHKELEETAKKVGGHGGMDYIMDYRLVYCLRNGLPLDMDVYDLAEWCCMAELTRLSIENGSAPVEVPDFTRGGWNKVQGYRHAFAE
notes: mature form, signal peptide removed, His-tagged, from E. coli
In the case of B1, in series [5], the Km is 0.03 (±0.005) mM and the kcat is on record as 2.1 (±0.3) s-1.

(Values after paper PMC11992087, “A Bacteroides thetaiotaomicron genetic locus encodes activities consistent with mucin O-glycoprotein processing and N-acetylgalactosamine metabolism” (Nature Communications, 2025).)
